Reference: DBAASP
Values after ≈ are worked out from the molar mass of the structure shown. Values joined by “and” are separate entries in the source; they are usually repeats but may differ in a detail not shown here. Equal values may be shown once. One block for each compound: values may come before it.

Columns and labels:
Experiment in all cases: ≥ marks a high value that may be exact or a test limit, other limits are often not marked, values filed in µg/mL are converted to µM
[1] = tested on: Saccharomyces cerevisiae IFO 1850
[2] = tested on: Bacillus subtilis ATCC 6633
[3] = tested on: Escherichia coli ATCC 10536
[4] = tested on: Klebsiella pneumoniae
[5] = tested on: Cutibacterium acnes ATCC 11827
[6] = tested on: Aeromonas sobria
[7] = tested on: Proteus vulgaris
[8] = tested on: Enterococcus faecium 1299
[9] = tested on: Staphylococcus aureus
[10] = tested on: Staphylococcus aureus ATCC 2592
[11] = tested on: Salmonella enterica subsp. enterica serovar Typhi
[12] = tested on: Escherichia coli 1375
[13] = tested on: Arcyria cinerea
[14] = tested on: Staphylococcus aureus 1350
[15] = tested on: Candida glabrata 0902
[16] = tested on: Enterococcus faecalis 981
[17] = tested on: Staphylococcus haemolyticus
[18] = tested on: Pseudomonas aeruginosa 1413
[19] = tested on: Pseudomonas aeruginosa ATCC 27853
[20] = tested on: Escherichia coli 1334
[21] = tested on: Escherichia coli
[22] = tested on: Staphylococcus aureus 1307
[23] = tested on: Acinetobacter baumannii
[24] = tested on: Escherichia coli 1335
[25] = tested on: Klebsiella pneumoniae 1400
[26] = tested on: Pseudomonas aeruginosa 1411
[27] = tested on: Stenotrophomonas maltophilia
[28] = tested on: Staphylococcus epidermidis
[29] = tested on: Escherichia coli ATCC 25922
[30] = tested on: Candida albicans ATCC 2002
[31] = tested on: Serratia marcescens
[32] = tested on: Pseudomonas aeruginosa 1412
[33] = tested on: Staphylococcus aureus 1303
[34] = tested on: Escherichia coli 1342
[35] = tested on: Proteus mirabilis
[36] = tested on: Cryptococcus neoformans
[37] = tested on: Staphylococcus capitis 1
[38] = tested on: Yersinia pseudotuberculosis YPIII
[39] = tested on: Candida albicans ATCC 10231
[40] = tested on: Bacillus megaterium Bm11
[41] = tested on: Staphylococcus aureus Cowan 1
[42] = tested on: Staphylococcus aureus CCARM 3090
[43] = tested on: Pseudomonas aeruginosa KCTC 1637
[44] = tested on: Listeria monocytogenes KCTC 3710
[45] = tested on: Salmonella typhimurium CCARM 8009
[46] = tested on: Candida albicans CCARM 14007
[47] = tested on: Escherichia coli KCTC 1682
[48] = tested on: Staphylococcus aureus KCTC 1621
[49] = tested on: Salmonella typhimurium CCARM 8007
[50] = tested on: Staphylococcus aureus CCARM 3114
[51] = tested on: Bacillus subtilis KCTC 1918
[52] = tested on: Salmonella typhimurium KCTC 1926
[53] = tested on: Candida albicans ATCC 64550
[54] = tested on: Escherichia coli CCARM 1238
[55] = tested on: Staphylococcus aureus CCARM 3126
[56] = tested on: Staphylococcus aureus CCARM 3108
[57] = tested on: Candida albicans CCARM 14001
[58] = tested on: Staphylococcus aureus CCARM 3089
[59] = tested on: Salmonella typhimurium CCARM 8013
[60] = tested on: Escherichia coli CCARM 1229

- MIC [1]: 3.92 µM (≈ 12 µg/mL)
- MIC [2]: 3.92 µM (≈ 12 µg/mL)
- MIC [3]: 9.14 µM (≈ 28 µg/mL)
Structure (SMILES): CC(C)C[C@H](NC(=O)[C@H](CCCN=C(N)N)NC(=O)CNC(=O)CNC(=O)[C@@H](NC(=O)[C@H](CCCCN)NC(=O)[C@@H]1CCCN1C(=O)[C@H](Cc1ccccc1)NC(=O)[C@H](Cc1ccc(O)cc1)NC(=O)[C@H](CCC(N)=O)NC(=O)[C@H](CCCCN)NC(=O)CN)C(C)C)C(=O)N[C@@H](CO)C(=O)NCC(=O)N[C@@H](CCCCN)C(=O)N[C@@H](C)C(=O)N1CCC[C@H]1C(=O)N[C@@H](CC(C)C)C(=O)N[C@@H](C)C(=O)N[C@@H](C)C(=O)N[C@@H](CCCCN)C(=O)N[C@H](C(=O)N[C@@H](Cc1cnc[nH]1)C(=O)N[C@@H](CCCN=C(N)N)C(=O)N[C@@H](CCCN=C(N)N)C(=O)N[C@@H](CC(C)C)C(=O)N[C@@H](CCCCN)C(=O)N1CCC[C@H]1C(N)=O)[C@@H](C)O [GKQYFPKVGGRLSGKAPLAAKTHRRLKP]

- MIC [4]: 2.95 µM and 5.9 µM
- MIC [5]: 0.74 µM (≈ 2.35 µg/mL)
- MIC [6]: 1.48 µM (≈ 4.7 µg/mL)
- MIC [7]: 23.6 µM (≈ 75 µg/mL)
- MIC [8]: 1.48 µM (≈ 4.7 µg/mL)
- MIC [9]: 0.74 µM and > 0.37 µM
- MIC [10]: 0.18 µM (≈ 0.572 µg/mL)
- MIC [11]: 5.9 µM (≈ 18.7 µg/mL)
- MIC [12]: 2.95 µM (≈ 9.37 µg/mL)
- MIC [13]: 0.37 µM and 0.74 µM
- MIC [14]: 1.48 µM (≈ 4.7 µg/mL)
- MIC [15]: 5.9 µM (≈ 18.7 µg/mL)
- MIC [16]: 2.95 µM and 1.48 µM
- MIC [18]: 2.95 µM (≈ 9.37 µg/mL)
- MIC [19]: 5.9 µM and > 2.95 µM
- MIC [20]: 2.95 µM (≈ 9.37 µg/mL)
- MIC [21]: 1.48 µM (≈ 4.7 µg/mL)
- MIC [22]: 2.95 µM (≈ 9.37 µg/mL)
- MIC [23]: 1.48 µM and 1.05 µM
- MIC [24]: 1.48 µM (≈ 4.7 µg/mL)
- MIC [25]: 4.17 µM (≈ 13.2 µg/mL)
- MIC [26]: 1.48 µM and 2.95 µM
- MIC [27]: 2.95 µM (≈ 9.37 µg/mL)
- MIC [28]: 2.95 µM (≈ 9.37 µg/mL)
- MIC [29]: 1.48 µM (≈ 4.7 µg/mL)
- MIC [30]: 0.18 µM and 0.37 µM
- MIC [31]: 31.5 µM and 23.6 µM
- MIC [32]: 2.95 µM and 5.9 µM
- MIC [33]: 2.95 µM and 1.48 µM
- MIC [34]: 0.74 µM and 1.48 µM
- MIC [35]: 1.48 µM (≈ 4.7 µg/mL)
- MIC [36]: 23.6 µM (≈ 75 µg/mL)
Structure (SMILES): CC[C@H](C)[C@H](NC(=O)[C@H](C)NC(=O)[C@H](CCCN=C(N)N)NC(=O)[C@H](Cc1ccc(O)cc1)NC(=O)[C@H](CC(C)C)NC(=O)[C@H](CC(N)=O)NC(=O)[C@H](Cc1ccc(O)cc1)NC(=O)CNC(=O)[C@H](C)NC(=O)[C@@H](NC(=O)[C@@H](NC(=O)[C@@H](NC(=O)[C@H](CCCN=C(N)N)NC(=O)[C@@H](NC(=O)[C@@H](NC(=O)[C@@H](NC(=O)[C@@H]1CCCN1C(=O)[C@H](Cc1c[nH]c2ccccc12)NC(=O)[C@H](Cc1ccccc1)NC(=O)[C@H](CCCN=C(N)N)NC(=O)[C@H](CCCCN)NC(=O)[C@@H](NC(=O)[C@@H](N)CCCN=C(N)N)[C@@H](C)CC)C(C)C)C(C)C)[C@@H](C)CC)[C@@H](C)O)C(C)C)C(C)C)C(=O)N[C@@H](CCCCN)C(=O)N[C@@H](CCCCN)C(=O)N[C@@H](CCCCN)C(=O)O [RIKRFWPVVIRTVVAGYNLYRAIKKK]
- MIC [17]: 0.09 µM (≈ 0.286 µg/mL)

- MIC [37]: ≥ 40 µM
- MIC [38]: ≥ 40 µM
- MIC [39]: > 40 µM
- MIC [40]: 20 µM (≈ 26.4 µg/mL)
- MIC [41]: ≥ 40 µM
- MIC [29]: > 40 µM
Structure (SMILES): CC[C@H](C)[C@H](NC(=O)CNC(=O)[C@H](CO)NC(=O)[C@H](CC(C)C)NC(=O)[C@@H](NC(=O)[C@H](CCCN=C(N)N)NC(=O)CNC(=O)[C@@H](NC(=O)[C@H](CC(C)C)NC(=O)[C@@H]1CCCN1C(=O)[C@H](CC(C)C)NC(=O)[C@H](C)N)[C@@H](C)CC)C(C)C)C(=O)N[C@@H](CC(C)C)C(N)=O [ALPLIGRVLSGIL]

- MIC [42]: 12.5 µM (≈ 15.9 µg/mL)
- MIC [43]: 3.12 µM (≈ 3.98 µg/mL)
- MIC [44]: 3.12 µM (≈ 3.98 µg/mL)
- MIC [45]: 6.25 µM and 12.5 µM
- MIC [46]: ≥ 32 µM
- MIC [47]: 6.25 µM and 12.5 µM
- MIC [48]: 6.25 µM and 12.5 µM
- MIC [49]: 12.5 µM (≈ 15.9 µg/mL)
- MIC [50]: 12.5 µM (≈ 15.9 µg/mL)
- MIC [51]: 6.25 µM and 12.5 µM
- MIC [52]: 1.56 µM (≈ 1.99 µg/mL)
- MIC [53]: ≥ 50 µM
- MIC [54]: 12.5 µM (≈ 15.9 µg/mL)
- MIC [55]: 12.5 µM (≈ 15.9 µg/mL)
- MIC [56]: 12.5 µM (≈ 15.9 µg/mL)
- MIC [57]: ≥ 32 µM
- MIC [58]: 12.5 µM (≈ 15.9 µg/mL)
- MIC [59]: 6.25 µM and 12.5 µM
- MIC [60]: 6.25 µM and 12.5 µM
Structure (SMILES): NCCCC[C@H](NC(=O)[C@H](Cc1c[nH]c2ccccc12)NC(=O)[C@H](CCCCN)NC(=O)[C@H](Cc1c[nH]c2ccccc12)NC(=O)[C@H](CCCCN)NC(=O)[C@H](Cc1c[nH]c2ccccc12)NC(=O)[C@@H](N)CCCCN)C(=O)N[C@@H](Cc1c[nH]c2ccccc12)C(N)=O [KWKWKWKW]
